Data from US9428508B2, “2,4-diamino-6,7-dihydro-5H-pyrrolo[2,3]pyrimidine derivatives as FAK/Pyk2 inhibitors” (Centaurus BioPharma Co., Ltd., priority 2011, dated 2016).
pIC50: −log10 of the molar value.

Tests used:
[1] = molecular target: FAK (Homo sapiens (Human), UniProt Q05397); experiment: Biochemical assay for FAK activity (LANCE TR-FRET, ULight-poly Glu,Ala,Tyr substrate); conditions: GST-tagged FAK, 120 min reaction
Outline: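 GST-tagged FAK (2.5 nM working stock) with ULight-poly Glu,Ala,Tyr (666 nM stock) and ATP (33.3 μM stock) in Tris pH 7.5/MgCl2/DTT/CHAPS buffer with BSA, 120 min; EDTA-quenched. Phosphorylation read by TR-FRET with Eu-anti-phosphotyrosine (PY20) antibody after 60 min. Compounds tested as 12-point 3-fold dilutions.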

[2] = molecular target: PYK2 (Homo sapiens (Human), UniProt Q14289); experiment: Biochemical assay for PYK2 activity (LANCE TR-FRET, ULight-poly Glu,Ala,Tyr substrate); conditions: GST-tagged PYK2, 40 min reaction
Outline: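 GST-tagged human PYK2 (2 nM working stock) with ULight-poly Glu,Ala,Tyr (1:1:1) peptide (666 nM working stock) and ATP (46.6 μM working stock) in 40 mM Tris pH 7.5, MgCl2, 1 mM DTT, 1 mM CHAPS; 40 min reaction, EDTA quench. Phosphotyrosine read by LANCE Eu-anti-phosphotyrosine (PY20) TR-FRET after 60 min; 12-point 3-fold compound dilutions.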

PYK2, sequence (Q14289 whole entry): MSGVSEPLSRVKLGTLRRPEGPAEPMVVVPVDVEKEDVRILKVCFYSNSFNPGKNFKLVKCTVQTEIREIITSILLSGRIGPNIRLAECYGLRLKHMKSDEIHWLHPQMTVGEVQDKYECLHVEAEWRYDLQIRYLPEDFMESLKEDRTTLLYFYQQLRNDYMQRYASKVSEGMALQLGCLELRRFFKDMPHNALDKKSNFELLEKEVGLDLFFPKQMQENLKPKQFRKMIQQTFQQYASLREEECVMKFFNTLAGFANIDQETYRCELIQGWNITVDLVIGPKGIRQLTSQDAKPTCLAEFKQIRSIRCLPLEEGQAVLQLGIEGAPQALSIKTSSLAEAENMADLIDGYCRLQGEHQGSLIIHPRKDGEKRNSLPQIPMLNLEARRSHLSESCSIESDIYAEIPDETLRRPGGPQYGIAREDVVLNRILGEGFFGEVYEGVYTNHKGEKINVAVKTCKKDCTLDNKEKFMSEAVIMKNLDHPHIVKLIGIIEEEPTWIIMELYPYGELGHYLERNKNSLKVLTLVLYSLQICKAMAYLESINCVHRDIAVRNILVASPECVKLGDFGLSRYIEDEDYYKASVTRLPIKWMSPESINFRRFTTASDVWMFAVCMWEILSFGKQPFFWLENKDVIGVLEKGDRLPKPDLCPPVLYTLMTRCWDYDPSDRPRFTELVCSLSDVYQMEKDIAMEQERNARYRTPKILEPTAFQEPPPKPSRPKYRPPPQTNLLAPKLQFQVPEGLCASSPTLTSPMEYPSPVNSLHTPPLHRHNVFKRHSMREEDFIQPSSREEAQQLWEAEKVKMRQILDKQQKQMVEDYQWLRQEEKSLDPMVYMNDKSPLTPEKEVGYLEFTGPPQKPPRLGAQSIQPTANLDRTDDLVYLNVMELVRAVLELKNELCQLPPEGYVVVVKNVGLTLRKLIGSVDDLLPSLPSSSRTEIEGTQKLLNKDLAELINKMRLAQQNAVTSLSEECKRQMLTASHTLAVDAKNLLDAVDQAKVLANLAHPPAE
FAK, sequence (Q05397 whole entry): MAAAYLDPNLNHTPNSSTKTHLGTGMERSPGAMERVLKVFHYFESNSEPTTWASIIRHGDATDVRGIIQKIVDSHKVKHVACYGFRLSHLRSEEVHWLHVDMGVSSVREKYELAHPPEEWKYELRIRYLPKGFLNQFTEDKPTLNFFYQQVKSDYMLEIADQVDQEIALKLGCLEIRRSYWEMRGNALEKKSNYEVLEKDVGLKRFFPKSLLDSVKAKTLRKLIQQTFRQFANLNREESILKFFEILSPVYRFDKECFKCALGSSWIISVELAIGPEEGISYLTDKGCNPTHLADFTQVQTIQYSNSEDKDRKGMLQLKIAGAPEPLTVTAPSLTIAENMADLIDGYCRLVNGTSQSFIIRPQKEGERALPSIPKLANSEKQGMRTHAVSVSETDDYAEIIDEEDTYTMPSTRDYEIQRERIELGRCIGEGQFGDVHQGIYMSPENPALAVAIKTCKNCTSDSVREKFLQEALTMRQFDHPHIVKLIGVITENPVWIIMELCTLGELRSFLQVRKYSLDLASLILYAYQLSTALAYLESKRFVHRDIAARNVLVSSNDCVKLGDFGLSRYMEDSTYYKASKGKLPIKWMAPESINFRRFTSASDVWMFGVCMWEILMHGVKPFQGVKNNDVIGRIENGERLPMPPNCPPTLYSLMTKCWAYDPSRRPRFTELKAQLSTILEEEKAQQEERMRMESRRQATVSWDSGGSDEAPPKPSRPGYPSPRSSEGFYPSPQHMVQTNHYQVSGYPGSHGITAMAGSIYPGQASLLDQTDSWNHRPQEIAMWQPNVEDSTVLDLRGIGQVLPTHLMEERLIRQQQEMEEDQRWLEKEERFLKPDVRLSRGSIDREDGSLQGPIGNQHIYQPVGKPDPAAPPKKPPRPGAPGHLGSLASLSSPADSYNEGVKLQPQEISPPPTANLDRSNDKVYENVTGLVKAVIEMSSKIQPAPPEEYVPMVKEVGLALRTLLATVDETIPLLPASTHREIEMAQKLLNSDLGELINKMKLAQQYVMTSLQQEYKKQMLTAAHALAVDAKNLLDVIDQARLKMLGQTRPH

COc1cc(N2CCC(N3CCNCC3)CC2)ccc1Nc1nc2c(c(Nc3ccccc3P(C)(C)=O)n1)CCN2 [Example 163, N^4-(2-(dimethylphosphoryl)phenyl)-N^2-(2-methoxy-4-(4-(piperazin-1-yl)piperidin-1-yl)phenyl)-6,7-dihydro-5H-pyrrolo[2,3-d]pyrimidine-2,4-diamine]
pIC50 [1]: > 7.00
pIC50 [2]: > 7.30
